In patent publication US20120283303A1, “USE OF N-AMINOIMIDAZOLE CYTOPROTECTIVE COMPOUNDS FOR TREATING CELL DEATH AND/OR GSK-3 MEDIATED DISEASES” (K.U.LEUVEN RESEARCH AND DEVELOPMENT, priority 2006, published 2012):

What was measured:
[1] = target: T1, p300 (H3 peptide) (Homo sapiens, UniProt Q09472); assay: Radiometric enzyme activity assay, p300 (H3 peptide); format: biochemical; settings: 5 μg/ml NR-818, 10 μM ATP
T1 construct: purchased Upstate Biotechnology
Procedure: (§1) GSK-3 were assayed for their ability to phosphorylate the appropriate peptide/protein substrate in the presence of 5 μg/ml NR-818 and 10 μM ATP. Using the direct radiometric approach, kinase activities were determined and expressed as % activity compared to the untreated control (Upstate Biotechnology, Lake Placid, N.Y.). Activities are given as the mean of duplicate determinations relative to control incubations in which the inhibitor was substituted with DMSO. In the following table 1 providing results for NR818, the following abbreviations are used: • CDK, cyclin-dependent kinase; • CK, casein kinase; • eEF-2K, eukaryotic elongation factor-2 kinase; • JNK, c-Jun N-terminal kinase; • MAPK, mitogen-activated protein kinase; • PKC, protein kinase C; and • PI 3-kinase, phosphatidylinositol 3-kinase.

[2] = target: T2, P/CAF (H4 peptide) (Homo sapiens, UniProt Q92831); assay: Radiometric enzyme activity assay, P/CAF (H4 peptide); format: biochemical; settings: 5 μg/ml NR-818, 10 μM ATP
T2 construct: purchased Upstate Biotechnology
T2 sequence (Q92831 whole entry): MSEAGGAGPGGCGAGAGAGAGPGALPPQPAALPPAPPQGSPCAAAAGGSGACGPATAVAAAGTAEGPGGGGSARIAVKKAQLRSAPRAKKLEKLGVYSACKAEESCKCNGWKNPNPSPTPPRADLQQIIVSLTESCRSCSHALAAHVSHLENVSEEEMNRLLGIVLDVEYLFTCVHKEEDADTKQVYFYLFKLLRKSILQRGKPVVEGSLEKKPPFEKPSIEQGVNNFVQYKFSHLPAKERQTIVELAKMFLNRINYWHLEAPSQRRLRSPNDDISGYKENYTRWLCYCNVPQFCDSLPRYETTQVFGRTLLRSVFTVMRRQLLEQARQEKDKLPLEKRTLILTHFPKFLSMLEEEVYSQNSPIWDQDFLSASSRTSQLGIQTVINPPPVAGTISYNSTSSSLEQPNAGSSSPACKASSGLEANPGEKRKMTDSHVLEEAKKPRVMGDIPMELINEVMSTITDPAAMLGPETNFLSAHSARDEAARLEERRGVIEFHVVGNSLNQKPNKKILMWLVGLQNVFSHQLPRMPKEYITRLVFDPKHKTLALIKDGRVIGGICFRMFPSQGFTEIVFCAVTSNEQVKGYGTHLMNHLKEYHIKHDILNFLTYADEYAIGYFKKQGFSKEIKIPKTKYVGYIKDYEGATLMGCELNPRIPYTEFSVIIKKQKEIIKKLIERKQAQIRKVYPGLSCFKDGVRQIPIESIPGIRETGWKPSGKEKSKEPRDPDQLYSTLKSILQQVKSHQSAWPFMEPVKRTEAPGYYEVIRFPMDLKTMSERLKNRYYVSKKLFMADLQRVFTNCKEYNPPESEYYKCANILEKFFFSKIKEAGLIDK
Procedure: as §1

[3] = target: T3, P/CAF (H3 peptide) (Homo sapiens, UniProt Q92831); assay: Radiometric enzyme activity assay, P/CAF (H3 peptide); format: biochemical; settings: 5 μg/ml NR-818, 10 μM ATP
T3 construct: purchased Upstate Biotechnology
T3 sequence (Q92831 whole entry): as above
Procedure: as §1

[4] = target: T4, p300 (H4 peptide) (Homo sapiens, UniProt Q09472); assay: Radiometric enzyme activity assay, p300 (H4 peptide); format: biochemical; settings: 5 μg/ml NR-818, 10 μM ATP
T4 construct: purchased Upstate Biotechnology
T4 sequence (Q09472 whole entry): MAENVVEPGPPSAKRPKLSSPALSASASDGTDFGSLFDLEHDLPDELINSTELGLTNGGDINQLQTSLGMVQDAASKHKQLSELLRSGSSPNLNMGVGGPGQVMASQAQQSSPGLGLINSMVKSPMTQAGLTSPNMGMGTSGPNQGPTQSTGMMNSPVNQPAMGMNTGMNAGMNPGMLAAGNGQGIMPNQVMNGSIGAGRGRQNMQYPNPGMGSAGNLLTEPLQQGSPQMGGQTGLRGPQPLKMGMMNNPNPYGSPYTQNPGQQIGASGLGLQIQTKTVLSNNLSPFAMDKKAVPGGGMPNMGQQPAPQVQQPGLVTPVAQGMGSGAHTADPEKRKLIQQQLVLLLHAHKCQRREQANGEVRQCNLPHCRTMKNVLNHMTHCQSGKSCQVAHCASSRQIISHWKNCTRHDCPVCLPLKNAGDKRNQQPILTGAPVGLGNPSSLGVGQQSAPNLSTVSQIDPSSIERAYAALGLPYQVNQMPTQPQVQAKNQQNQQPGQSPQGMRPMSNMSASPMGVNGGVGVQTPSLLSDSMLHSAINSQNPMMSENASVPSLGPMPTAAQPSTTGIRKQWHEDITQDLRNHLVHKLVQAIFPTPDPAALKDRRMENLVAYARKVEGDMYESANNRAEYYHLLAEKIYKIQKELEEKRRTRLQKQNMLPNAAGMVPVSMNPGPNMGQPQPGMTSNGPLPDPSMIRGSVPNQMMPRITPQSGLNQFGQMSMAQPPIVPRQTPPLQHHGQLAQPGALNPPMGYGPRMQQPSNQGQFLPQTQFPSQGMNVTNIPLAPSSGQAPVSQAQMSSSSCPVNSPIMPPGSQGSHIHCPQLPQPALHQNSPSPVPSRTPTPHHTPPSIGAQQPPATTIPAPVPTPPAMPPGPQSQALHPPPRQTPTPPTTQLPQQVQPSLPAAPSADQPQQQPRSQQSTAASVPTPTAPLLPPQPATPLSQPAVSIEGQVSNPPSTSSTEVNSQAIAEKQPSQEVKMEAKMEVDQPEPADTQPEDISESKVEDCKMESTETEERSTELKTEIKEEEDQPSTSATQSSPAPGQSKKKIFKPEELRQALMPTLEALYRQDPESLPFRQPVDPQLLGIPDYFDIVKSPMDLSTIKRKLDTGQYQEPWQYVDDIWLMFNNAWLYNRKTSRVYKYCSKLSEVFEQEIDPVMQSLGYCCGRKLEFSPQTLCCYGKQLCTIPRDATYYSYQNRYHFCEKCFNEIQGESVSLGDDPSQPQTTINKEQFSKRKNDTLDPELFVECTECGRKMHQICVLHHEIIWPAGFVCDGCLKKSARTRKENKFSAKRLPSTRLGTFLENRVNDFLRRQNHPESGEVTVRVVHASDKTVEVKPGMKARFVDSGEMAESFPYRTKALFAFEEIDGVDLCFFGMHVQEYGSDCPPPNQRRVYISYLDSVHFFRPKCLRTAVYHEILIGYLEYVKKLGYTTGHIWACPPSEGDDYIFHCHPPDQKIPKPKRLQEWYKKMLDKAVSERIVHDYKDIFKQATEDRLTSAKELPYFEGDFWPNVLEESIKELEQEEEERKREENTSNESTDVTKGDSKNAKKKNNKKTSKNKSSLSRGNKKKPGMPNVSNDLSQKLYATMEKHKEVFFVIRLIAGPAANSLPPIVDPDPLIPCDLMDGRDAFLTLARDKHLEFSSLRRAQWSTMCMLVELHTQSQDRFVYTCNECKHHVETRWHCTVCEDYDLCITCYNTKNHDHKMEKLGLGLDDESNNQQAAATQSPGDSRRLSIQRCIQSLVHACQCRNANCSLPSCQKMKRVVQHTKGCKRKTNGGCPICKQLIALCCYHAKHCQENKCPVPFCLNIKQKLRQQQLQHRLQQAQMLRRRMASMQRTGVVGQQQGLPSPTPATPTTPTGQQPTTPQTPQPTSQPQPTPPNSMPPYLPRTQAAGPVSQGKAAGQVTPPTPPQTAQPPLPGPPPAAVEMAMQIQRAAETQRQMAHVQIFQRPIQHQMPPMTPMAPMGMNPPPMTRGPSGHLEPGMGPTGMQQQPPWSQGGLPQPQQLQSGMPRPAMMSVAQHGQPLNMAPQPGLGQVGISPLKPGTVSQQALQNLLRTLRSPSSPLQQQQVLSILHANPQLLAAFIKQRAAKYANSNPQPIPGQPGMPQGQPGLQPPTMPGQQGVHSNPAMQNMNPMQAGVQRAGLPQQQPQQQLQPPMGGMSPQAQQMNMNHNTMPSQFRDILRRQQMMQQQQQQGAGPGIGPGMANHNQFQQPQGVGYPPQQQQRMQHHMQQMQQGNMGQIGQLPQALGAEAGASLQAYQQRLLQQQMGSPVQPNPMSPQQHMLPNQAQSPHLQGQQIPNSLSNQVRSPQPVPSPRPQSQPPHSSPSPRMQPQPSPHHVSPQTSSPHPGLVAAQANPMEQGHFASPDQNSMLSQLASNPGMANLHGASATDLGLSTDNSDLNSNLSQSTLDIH
Procedure: as §1

[5] = Diabetic mouse glucose tolerance test; format: in vivo, mice; settings: subcutaneously, 30 mg/kg
Description: NR818 is formulated and tested in the diabetic mouse glucose tolerance test as described in example 269 of U.S. Pat. No. 6,489,344.

T1 sequence (Q09472 whole entry): as above

Cc1nc(S)n(Nc2cccc3ccccc23)c1-c1ccccc1 [HER/NR818, 4-Methyl-1-(naphthalen-1-ylamino)-5-phenyl-1,3-dihydro-imidazole-2-thione]
Activity (% of control) [1]: 88 % of control
Activity (% of control) [2]: 103 % of control
Activity (% of control) [3]: 99 % of control
Activity (% of control) [4]: 100 % of control
basal hyperglycemia just prior to the glucose tolerance test ([5]; diabetic mice): significant reduction
glucose disposal following glucose challenge ([5]; diabetic mice): significantly improved
tissue penetrance in vivo ([5]; mice): high
